Tests used:
rats [1] = experiment: Subcutaneous metrazol seizure threshold test (scMET), rats; type: in vivo; conditions: for ED50: Rattus norvegicus; for scMET Results (protected/tested animals): i.p.
Experimental: In vivo activity testing was performed at the Epilepsy Branch, National Institute of Neurological Disorders and Stroke, National Institutes of Health (NIH, Bethesda, USA) within the Anticonvulsant Screening Program (ASP) (currently known as the Epilepsy Therapy Screening Program (ETSP)). Pharmacological evaluation was planned and performed in accordance with the Institute of Laboratory Resources polices on the humane care of laboratory animals and approved by the University of Utah’s Institutional Animal Care and Use Committee (IACUC). All testing protocols were previously published as well as they are available on the NIH website. In the tests, albino mice Carworth Farms No.1 (CF-1) (Charles River), C57/Bl6 mice (Charles River), Frings mice (University of Utah) or male rats Sprague–Dawley (Charles River) were used. All animals were housed, fed, and handled in a manner consistent with the recommendations in the National Council Publication, ‘Guide for the Care and Use of Laboratory animals’ [51]. The tested compound was suspended in 0.5% methylcellulose.
The tested compound was administered i.p. or p.o. at certain dose. Then, subcutaneous injection of metrazol (syn. pentetrazol, pentylenepentetrazol) dissolved in 0.9% NaCl at the dose of 85 mg/kg (mice) or 70 mg/kg (rats) was performed to induce seizures. Protection was scored if there was not an observed episode of clonic spasm of at least 5 sec.

[2] = Neurotoxicity (TOX), behavioral tests, rats; type: in vivo; conditions: rat, in vivo
Experimental: (§1) In mice, the neurological deficit was measured by the rotarod test in which a 1 inch diameter knurled plastic rod rotating at 6 rpm was used. Tests were performed at 0.25 h or 0.5 h of intraperitoneal or oral administration of the certain dose of the compounds KM-568. Each mouse was placed on the rod. If the animal was not able to remain on the rod for at least 1 min in each of three trials, the neurotoxicity was scored. In rats, the neurological deficit was measured in behavioral tests and scored when ataxia and loss of placing response and muscle tone were observed. Tests in rats were performed after 0.5 h of intraperitoneal administration or 1.0 h of oral administration of the certain dose of compound KM-568. TD50s were calculated by probit analysis.

rats [3] = experiment: Neurotoxicity (TOX), behavioral tests, rats; type: in vivo
Experimental: as §1

[4] = Ames microplate format (MPF) assay, TA98; conditions: Salmonella typhimurium
Excerpt: The Ames microplate format (MPF) mutagenicity assay (Xenometrix, Allschwil, Switzerland) was used to test KM-568 mutagenicity. Growth, exposure, and indicator media, positive control chemicals, and four Salmonella typhimurium strains TA98, TA100, TA1535 and TA1537 were included in the kit. TA100 and TA1535 strains detect base substitution mutations, whereas TA98 and TA1537 indicate frameshift mutations. The strains of bacteria included in a kit are in compliance with the Organization for Economic Cooperation and Development (OECD) 471 Guideline for Testing of Chemicals.
The assay is a liquid microplate modification of the traditional Salmonella test. During the procedure, bacteria are exposed to different concentrations of a test compound for 90 min in a medium containing sufficient histidine to support cell divisions. Then, the cultures are diluted in a pH indicator medium lacking histidine and aliquoted into 48 wells of a 384-well plate. Within 2 days, bacteria that have undergone reversion to amino acid prototrophy will form colonies. Products of bacteria metabolism reduce pH of the medium, changing the color of wells from purple to yellow.
The test procedure provided by Xenometrix and described in detail elsewhere was followed. Bacterial strains were grown overnight (14–16 h) in exposure medium in a shaker incubator and then exposed to KM-568 in 24-well plates for 90 min at 37 °C with agitation. Final KM-568 concentrations in the assay were 0.1, 0.2, and 0.5 mM. After preincubation, the cultures were diluted in the indicator medium and the contents of each 24-well culture were transferred to 48 wells on a 384-well plate and incubated further for 48 h at 37 °C without agitation. After the exposure, the number of wells containing bacteria was scored for yellow wells. […] Pure DMSO was used as a negative control. All doses were performed in triplicate.
The fold increase of revertants relative to the solvent control was determined by dividing the mean number of positive wells at each dose by the solvent control at baseline. The solvent control at baseline was calculated as the mean number of positive wells in the solvent control plus one standard deviation (SD). When an increase of more than twofold relative to the baseline at more than one dose with a dose–response was observed, the sample was classified as positive, whereas when no response > 2 times the baseline and no dose–response was stated, the sample was classified as negative.

C[C@H](O)CNC(=O)/C=C/c1ccccc1 [KM-568, S(+)-(2E)-N-(2-hydroxypropyl)-3-phenylprop-2-enamide]
ED50 (rats [1]; ip, 0.25 h, 95% confidence interval in parentheses): 41.7 mg/kg | ED50 (rats [1]; po, 1.0 h, doses 62.5, 125.0, 250.0 mg/kg): > 250 mg/kg | scMET Results (protected/tested animals) (rats [1]; 30 mg/kg, 0.25 h): 1/8 | scMET Results (protected/tested animals) (rats [1]; 45 mg/kg, 0.25 h): 4/8 | scMET Results (protected/tested animals) (rats [1]; 60 mg/kg, 0.25 h): 8/8 | scMET Results (protected/tested animals) (rats [1]; 95 mg/kg, 0.25 h): 8/8 | TD50 at 0.5 h ([2]; ip, 0.5 h, 95% confidence interval in parentheses): 95.2 mg/kg | TD50 at 1 h ([2]; po, 1.0 h): > 500 mg/kg | TOX Results (animals displaying neurotoxicity/animals used) (rats [3]; i.p., 60 mg/kg, 0.5 h): 0/8 | TOX Results (animals displaying neurotoxicity/animals used) (rats [3]; i.p., 80 mg/kg, 0.5 h): 0/8 | TOX Results (animals displaying neurotoxicity/animals used) (rats [3]; i.p., 100 mg/kg, 0.5 h): 2/8 | TOX Results (animals displaying neurotoxicity/animals used) (rats [3]; i.p., 120 mg/kg, 0.5 h): 5/8 | TOX Results (animals displaying neurotoxicity/animals used) (rats [3]; i.p., 140 mg/kg, 0.5 h): 7/8 | TOX Results (animals displaying neurotoxicity/animals used) (rats [3]; p.o., 125.0 mg/kg, 1.0 h): 0/2 | TOX Results (animals displaying neurotoxicity/animals used) (rats [3]; p.o., 250.0 mg/kg, 1.0 h): 0/2 | TOX Results (animals displaying neurotoxicity/animals used) (rats [3]; p.o., 500.0 mg/kg, 1.0 h): 0/2 | fold induction at 90 min, 0.1 mM [4]: 0.1 | fold induction at 90 min, 0.2 mM [4]: 0.9 | fold induction at 90 min, 0.5 mM [4]: 0.7
